Numbered stars: 1 amine (or outer) side, 2 acyl side, 3 side chain; on linkers, the order of the positions; unused ones are H or OH. Bridge positions count the residues as written; N and C are the ends. Square brackets hold non-standard residues; d marks the D form. Peptide text beside a SMILES is read from it. I, II: the chains in the order shown. * marks the point of attachment. Actinocin(9to1) = Cc1c2oc3c(C)ccc(C(=O)[*:1])c3nc-2c(C(=O)[*:2])c(N)c1=O; NMeV = CN[C@H](C(=O)O)C(C)C; Cbz = O=C(OCc1ccccc1)*; Sar = CNCC(=O)O; CH2F = FC*
Assays:
[1] = tested on: ACSVL3; test: Acyl-CoA synthetase activity of control vs ACSVL3-deficient U87 cells with candidate small molecule inhibitors; type: biochemical, human; details: 80 μM drug; palmitic acid substrate; preliminary studies, FIG. 14
Description: Acyl-CoA synthetase assays. Activation of [1-^14C]palmitate (C16:0) or [1-^14C]lignocerate (C24:0) (Moravek Biochemicals, Brea Calif.) to their CoA derivatives was measured in frozen/thawed cell suspensions or post-nuclear supernatants of xenograft tissue homogenates as previously described (9, 19). Assays contained 15 or 60 μg cell or tissue protein for C16:0 and C24:0 fatty acid substrates, respectively.
For this study, we examined the effects of candidate small molecule inhibitors on the acyl-CoA synthetase activity of control U87 glioblastoma cells and ACSVL3-deficient U87 cells. The 16-carbon fatty acid, palmitic acid, was used as substrate. Drugs were solubilized in dimethylsulfoxide (DMSO, 10 mM) and diluted with phosphate-buffered saline (PBS, 0.8 mM) prior to their inclusion in enzyme assays; the final concentration of drug in the assay was 80 μM. Control incubations contained the vehicle, DMSO diluted in PBS, only. The assay measures the combined enzyme activity of all acyl-CoA synthetases found in U87 cells that are capable of using palmitic acid as substrate. A specific inhibitor of ACSVL3 is one in which there is partial inhibition of total cellular enzyme activity in control U87 cells (grey bars), but not in ACSVL3-deficient U87 cells (black bars).

[2] = tested on: ACSVL3; test: ACSVL3 expression in U373 cells with transcription or translation inhibitor, without or with HGF; type: cell-based, human; details: actinomycin D 20 μg/ml, cycloheximide 5 μM; for HGF-induced increase in ACSVL3 expression: HGF 6 hours
Description: We then investigated whether the increase in ACSVL3 protein in U373 cells was due to increased transcription of the ACSVL3 gene, or increased translation of ACSVL3 mRNA. U373 cells were incubated without or with HGF for 6 hours in the absence and presence of an inhibitor of transcription, actinomycin D, or the protein synthesis (translation) inhibitor, cycloheximide. Actinomycin D (20 μg/ml) and cycloheximide (5 μM) were added to the culture medium 16 and 8 hours, respectively, prior to the addition of HGF.

[3] = tested on: Akt; test: Akt signaling after HGF in control and ACSVL3 KD U87 cells (Western blot); type: cell-based, human; details: HGF 20 ng/ml
Description: A & B. Effect of HGF treatment on Akt phosphorylation and stability. Control and ACSVL3-3 KD U87 cells were incubated with HGF (20 ng/ml) for the indicated time prior to analysis for total Akt and phospho-Akt levels by Western blot. A, LiCOR Odyssey images; control and KD images were obtained simultaneously. B, Quantitation of the LiCOR data. C. Effect of caspase inhibition on Akt stability. One control and two different knockdown clones produced using the ACSVL3-3 shRNA plasmid were incubated with HGF (20 ng/ml) for the indicated time in the absence or presence of the pan-caspase inhibitor, Z-VAD-FMK (50 μM), prior to analysis for total Akt and phospho-Akt levels by Western blot. […] Left, adherent growth was measured 11.5 days post-transfection as described in the legend to FIG. 4A. Right, anchorage-independent growth was measured by colony formation in soft agar on day 17 post-transfection as described in the legend to FIG. 4B. Mean±standard error is shown; statistical significance was determined by one-way ANOVA with Bonferroni's multiple comparison test. ***, p<0.001 vs. control vector; **, p<0.01 vs. control vector; n.s., p>0.05 vs. control myr-Akt.
Immunohistochemistry, immunofluorescence, and Western blotting. […] ACSVL3 was detected on Western blots with SuperSignal West Pico chemiluminescent substrate (Pierce Biotechnology, Rockford Ill.). […]

[4] = tested on: ACSVL3; test: ACSVL3 expression in U87 glioma cells treated with HGF or EGF (Western blot); type: cell-based, human; details: HGF 20 ng/ml or EGF 30 ng/ml, 16 hrs
Description: (§1) A. Human U87, U373, and Mayo-22 glioma cells were grown to ˜80% confluence. Cells were either untreated or incubated 16 hrs in the presence of HGF (20 ng/ml; gift from Genentech; South San Francisco Calif.) or EGF (30 ng/ml; Calbiochem/EMD; San Diego Calif.) before harvesting and Western blot analysis for ACSVL3 expression. Each lane contained 30 μg total cellular protein. Actin was detected as a loading control. The three sections were from the same Western blot; images were obtained simultaneously. B. U87 cells stably expressing constitutively active EGFR (EGFRvIII) or corresponding control U87 cells were harvested and analyzed by Western blot. Actin was detected as a loading control. C. Tumors were produced in the flanks of athymic nude mice (n=12) by s.c. injection (2 sites per mouse) of 4×10^6 U87 cells. When tumors size reached ˜300 mm^3 (day 14), animals were randomly divided into two groups of 6 mice. […]
(§2) Immunohistochemistry, immunofluorescence, and Western blotting. […] ACSVL3 was detected on Western blots with SuperSignal West Pico chemiluminescent substrate (Pierce Biotechnology, Rockford Ill.). Total and phospho-Akt (ser473) were detected with antibodies from BD Biosciences (San Jose Calif.) and Cell Signaling Technology (Danvers Mass.), respectively, and quantitated with the LiCOR Odyssey dual wavelength infrared system. Protein was determined by the method of Lowry et al. (16).

[5] = tested on: ACSVL3; test: ACSVL3 expression in U373 glioma cells treated with HGF or EGF (Western blot); type: cell-based, human; details: for ACSVL3 expression: HGF 20 ng/ml or EGF 30 ng/ml, 16 hrs
Description: A. Human U87, U373, and Mayo-22 glioma cells were grown to ˜80% confluence. Cells were either untreated or incubated 16 hrs in the presence of HGF (20 ng/ml; gift from Genentech; South San Francisco Calif.) or EGF (30 ng/ml; Calbiochem/EMD; San Diego Calif.) before harvesting and Western blot analysis for ACSVL3 expression. Each lane contained 30 μg total cellular protein. Actin was detected as a loading control. The three sections were from the same Western blot; images were obtained simultaneously. B. U87 cells stably expressing constitutively active EGFR (EGFRvIII) or corresponding control U87 cells were harvested and analyzed by Western blot. Actin was detected as a loading control. C. Tumors were produced in the flanks of athymic nude mice (n=12) by s.c. injection (2 sites per mouse) of 4×10^6 U87 cells. When tumors size reached ˜300 mm^3 (day 14), animals were randomly divided into two groups of 6 mice. One group received i.p. injection (100 μg/20 g body wt) of anti-HGF mAb (L2G7) and the other group received isotype control mAb (5G8) on days 14, 16, and 18. Mice were sacrificed on day 20. Tumor homogenates (50 μg protein) were subjected to Western blot analysis for ACSVL3 expression. Actin expression was used as a loading control.
Immunohistochemistry, immunofluorescence, and Western blotting. Immunohistochemical staining for ACSVL3 and ACSBG1, and immunofluorescence analysis of ACSVL3, were performed using affinity-purified antibodies as described (9, 15). ACSVL3 was detected on Western blots with SuperSignal West Pico chemiluminescent substrate (Pierce Biotechnology, Rockford Ill.). Total and phospho-Akt (ser473) were detected with antibodies from BD Biosciences (San Jose Calif.) and Cell Signaling Technology (Danvers Mass.), respectively, and quantitated with the LiCOR Odyssey dual wavelength infrared system. Protein was determined by the method of Lowry et al. (16).
Further characterization of induction of ACSVL3 expression in U373 cells. Human U373 glioma cells have low ACSVL3 expression unless treated with hepatocyte growth factor (HGF). […]

[6] = tested on: ACSVL3; test: ACSVL3 expression in Mayo-22 glioma cells treated with HGF or EGF (Western blot); type: cell-based, human; details: Mayo 22 cells; HGF 20 ng/ml or EGF 30 ng/ml, 16 hrs
Description: as §1, §2

CN(C)CCCN1c2ccccc2Sc2ccc(C(F)(F)F)cc21 [Triflupromazine]
inhibition of acyl-CoA synthetase activity in control vs ACSVL3-deficient U87 cells (specificity for ACSVL3) [1]: exhibited specificity for ACSVL3

Cc1c2oc3c(C)ccc(C(=O)N[C@@H]4C(=O)N[C@H](C(C)C)C(=O)N5CCC[C@H]5C(=O)N(C)CC(=O)N(C)[C@@H](C(C)C)C(=O)O[C@@H]4C)c3nc-2c(C(=O)N[C@@H]2C(=O)N[C@H](C(C)C)C(=O)N3CCC[C@H]3C(=O)N(C)CC(=O)N(C)[C@@H](C(C)C)C(=O)O[C@@H]2C)c(N)c1=O [actinomycin D] (I: T[dV]P[Sar][NMeV] / II: T[dV]P[Sar][NMeV]; ester I:1-I:C, II:1-II:C; linker I:N-II:N via Actinocin(9to1))
HGF-induced increase in ACSVL3 expression [2]: blocked the HGF-induced increase in ACSVL3 expression
ACSVL3 expression in the absence of HGF [2]: neither actinomycin D nor cycloheximide affected ACSVL3 expression

CN(C)CCCN1c2ccccc2Sc2ccc(Cl)cc21 [chlorpromazine]
inhibition of acyl-CoA synthetase activity in control vs ACSVL3-deficient U87 cells (specificity for ACSVL3) [1]: exhibited specificity for ACSVL3

C[C@@H]1C[C@@H]([C@H](O)CC2CC(=O)NC(=O)C2)C(=O)[C@@H](C)C1 [cycloheximide]
HGF-induced increase in ACSVL3 expression [2]: blocked the HGF-induced increase in ACSVL3 expression
ACSVL3 expression in the absence of HGF [2]: neither actinomycin D nor cycloheximide affected ACSVL3 expression

Cc1cc(O)c2c(c1)C(=O)c1cc(O)cc(O)c1C2=O [emodin]
inhibition of acyl-CoA synthetase activity in control vs ACSVL3-deficient U87 cells (specificity for ACSVL3) [1]: inhibit enzyme activity similarly in both control and ACSVL3-deficient U87 cells

OCCN1CCN(CC/C=C2/c3ccccc3Sc3ccc(C(F)(F)F)cc32)CC1 [flupenthixol]
inhibition of acyl-CoA synthetase activity in control vs ACSVL3-deficient U87 cells (specificity for ACSVL3) [1]: inhibit both control and ACSVL3-deficient cells, but show greater inhibition in control U87 cells

O=C1NCN(c2ccccc2)C12CCN(CCCC(c1ccc(F)cc1)c1ccc(F)cc1)CC2 [fluspirilene]
inhibition of acyl-CoA synthetase activity in control vs ACSVL3-deficient U87 cells (specificity for ACSVL3) [1]: inhibit enzyme activity similarly in both control and ACSVL3-deficient U87 cells

OCCN1CCN(CCCN2c3ccccc3Sc3ccc(Cl)cc32)CC1 [perphenizine]
inhibition of acyl-CoA synthetase activity in control vs ACSVL3-deficient U87 cells (specificity for ACSVL3) [1]: exhibited specificity for ACSVL3

Nc1ccc(/N=N/c2ccccc2)c(N)n1 [phenazopyridine]
inhibition of acyl-CoA synthetase activity in control vs ACSVL3-deficient U87 cells (specificity for ACSVL3) [1]: inhibit enzyme activity similarly in both control and ACSVL3-deficient U87 cells

CC(CN1c2ccccc2Sc2ccccc21)N(C)C (stereo not shown) [promethazine]
inhibition of acyl-CoA synthetase activity in control vs ACSVL3-deficient U87 cells (specificity for ACSVL3) [1]: inhibit enzyme activity similarly in both control and ACSVL3-deficient U87 cells

CN1CCN(CCCN2c3ccccc3Sc3ccc(C(F)(F)F)cc32)CC1 [trifluperazine]
inhibition of acyl-CoA synthetase activity in control vs ACSVL3-deficient U87 cells (specificity for ACSVL3) [1]: inhibit both control and ACSVL3-deficient cells, but show greater inhibition in control U87 cells

Cbz-Val-Ala-Asp-CH2F
Akt response to HGF stimulation under caspase inhibition ([3]; ACSVL3 KD U87 cells, Z-VAD-FMK 50 μM): normalized the Akt response to HGF stimulation

EGF: EGFR ligand, epidermal growth factor
ACSVL3 expression [4]: not increased above its high basal expression levels
ACSVL3 expression [5]: increased ACSVL3 expression
ACSVL3 expression [6]: increased ACSVL3 expression

HGF: Hepatocyte growth factor, c-Met agonist
ACSVL3 expression [4]: not increased above its high basal expression levels
time course of induction of ACSVL3 protein ([5]; FIG. 12): increased in U373 cells as early as 2 hours
ACSVL3 expression [5]: induce ACSVL3 expression levels
Akt phosphorylation (Ser-473) ([3]; control-transfected U87 glioma cells): increased rapidly and remained elevated for up to two hours
ACSVL3 expression [6]: induce ACSVL3 expression levels

Reference: patent publication US20110269815A1, “METHODS OF REDUCING CELLULAR PROLIFERATION BY INHIBITING ACSVL3” (THE JOHNS HOPKINS UNIVERSITY, priority 2008, published 2011)
